According to patent US6420372B1, “Febrifugine, isofebrifugine and method for producing the same” (Japan Science and Technology Corporation, priority 1999, dated 2002):
pEC50: −log10 of the molar value. Like-named read-outs stand apart in the source and are kept apart here.

Tests used:
[1] = test system: mouse breast cancer FM3A cells (F28-7 strain); assay: Mouse FM3A cell growth inhibition test; type: cell-based; conditions: read-out: FM3A EC50
Description: An F28-7 strain, a wild cell strain derived from mouse breast cancer FM3A cells was employed. A medium was prepared by supplementing an ES medium with 2% inactivated fetal calf serum, and incubated at 37° C. under 5% CO2. Under these conditions, the doubling time of the FM3A cell was about 12 hours.
Following preincubation, the cells in logarithmic growth phase were diluted with the medium to 5×10^4 cells/ml. The sample used was one prepared for the anti-malarial activity test of the malaria protozoan. 5 to 10 μl of the samples were added to a 24-well cultivation plate (final concentration after addition of medium was 1×10^−4 to 1×10^−6). The compounds were tested in duplicates or triplicates, and wells containing 10 μl of sterilized water, DMF or DMSO were also prepared as a control. Subsequently, 990 to 995 μl of the cultured cell suspension previously prepared were added by gentle pipetting, and uniformly suspended in the medium. After incubating for 48 hours, the number of cells in each well was counted using SELF CONTROLLER (CC-108, Toa Medical Electrics) and the reproductive rate was calculated by using the following equation.
Reproductive rate (%)={([C]−[A])/([B]−[A])}×100
A: initial number of cells
B: number of control cell after 48 hours
C: number of cells after 48 hours from sample addition
The cell growth inhibition activity was calculated from the number of cells in the well containing the sample and the number of cells in the control. From the results thus obtained, the cytotoxicity of each sample was evaluated and represented as the cell growth inhibition concentration (EC50). The EC50 value is the concentration (expressed as molar concentration) of a sample necessary to inhibit the reproductive rate of the control by 50%, wherein the reproductive rate or the rate of malarial protozoan infection for the control in which samples are not added to the medium of malarial protozoan or FM3A cell, is regarded as 100%.

[2] = test system: P. falciparum FCR-3 strain (ATCC 30932); assay: Screening of malarial protozoan growth inhibition (culture assay); type: cell-based; conditions: for pEC50: Plasmodium falciparum, Erythrocyte, read-out: P. falciparum EC50; for Ratio of Selective Toxicity for Malarial Protozoan <chemotherapeutic coefficient>: [EC50 for mouse FM3A cell]/[EC50 for tropical fever malarial protozoan]; for malarial protozoan growth inhibiting activity (in words): summary of Table 1
Description: In this experiment, P. falciparum FCR-3 strain (ATCC 30932) was employed as the tropical fever malarial protozoan. In order to verify the effect of the commercially available anti-malarial agent chloroquin on resistant strains, a chloroquin resistant malarial protozoan of the P. falciparum K1 strain was employed. The medium used in this experiment was a filter-sterilized RPMI1640 medium which was adjusted to pH 7.4 and supplemented with 10% human serum. The malarial protozoan was cultured under 5% O2, 4% CO2 and […] at 36.5° C. The hematocrit level (% volume of erythrocyte in erythrocyte suspension) was adjusted to 5% for use. The initial infection rate with the tropical fever malarial protozoan at the beginning of the cultivation was 0.1%. The cultivation was performed using a 24-well cultivation plate, replacing the culture medium everyday, and subcultured at an infection rate of 4%. The infection rate was obtained by making a thin layer smear preparation, which was subjected to Giemsa staining or Diff-Qick staining, and observed microscopically (immersed in oil, magnified to ×1000) after which the malarial protozoan infection rate was determined using the following equation.
Malarial protozoan infection rate=[(number of infected erythrocyte)/(total number of erythrocyte)]×100 The cultured malarial protozoan-infected erythrocyte was collected by centrifugation, and washed with a serum-supplemented medium, after which a non-infected erythrocyte was added to adjust the initial infection rate to 0.3%. At this time, the hematocrit rate was 3%. The sample used in the test was obtained by dissolving in sterilized water, dimethylformamide (DMF), or dimethylsulfoxide (DMSO) to create samples of desired concentration.
5 to 10 μl of the sample were added to a 24-well cultivation plate. The samples were tested in duplicates or triplicates. As a control, 10 μl/well of sterilized water, DMF or DMSO was employed.
Subsequently, to the above medium, 990 to 995 μl of the tropical fever malarial protozoan culture medium previously prepared were added by gentle pipetting to create a uniform suspension. The culture plate was incubated for 72 hours in a CO2—O2—N2 (5%, 5%, 90%) incubator, after which thin layer smear preparations of each well was made, stained, and observed microscopically, to determine the infection rate together with the infection rate for the control.
From the malarial protozoan infection rate obtained by the method described above, the reproductive rate was calculated, whereby obtaining the 50% growth inhibition concentration (EC50) for malarial protozoan.
Reproductive rate={([b]−[a])/([c]−[a])}×100 a: initial infection rate b: infection rate with sample added c: infection rate without sample (Control)

Compound	pEC50 ([1]; 48 h)	pEC50 ([2]; 72 h)	Ratio of Selective Toxicity for Malarial Protozoan <chemotherapeutic coefficient> [2]	malarial protozoan growth inhibiting activity (in words) [2]	pEC50 ([1]; cell growth inhibition concentration (cytotoxicity), 48 hours incubation, cell count)	pEC50 ([2]; 50% growth inhibition concentration, infected erythrocytes, 72 hours incubation, infection rate by stained smear)
O=C(C[C@H]1NCCC[C@@H]1O)Cn1cnc2ccccc2c1=O [A, (2′R, 3′S)-febrifugine]	6.10	9.52	2667	selective malarial protozoan growth inhibiting activity		
O=c1c2ccccc2ncn1CC1(O)C[C@@H]2NCCC[C@@H]2O1 (stereo partly drawn) [B, (2′S, 3′S)-isofebrifugine]			2895	selective malarial protozoan growth inhibiting activity	6.66	10.12
O=C(C[C@@H]1NCCC[C@H]1O)Cn1cnc2ccccc2c1=O [Formula A0, reference compound]	4.70	6.72	105			
O=c1c2ccccc2ncn1CC1(O)C[C@@H]2NCCC[C@H]2O1 (some centres unmarked) [Formula B0, reference compound]	4.66	6.70	110			
